Data reported in patent US11154569B2, “Ruthenium μ-nitrido complexes and their use as calcium uptake inhibitors” (CORNELL UNIVERSITY, priority 2018, dated 2021).

Legend:
HEK293 cells = experiment: MTT cytotoxicity assay; type: cell-based, human
Experimental: HEK293 (human embryonic kidney cells were obtained from American Type Culture Collection (ATCC, Washington D.C.) and cultured as adherent monolayers in a humidified 5% CO2 atmosphere at 37° C. in Minimum Essential Media supplemented with 10% fetal bovine serum (FBS) and 100 U/mL penicillin/streptomycin. HeLa cells were cultured in Dulbecco's Modified Eagle's Medium (DMEM) supplemented with 10% FBS and 100 U/mL penicillin/streptomycin. Cells were checked for contamination monthly using the PlasmoTest™ mycoplasma detection kit. Ventricular cardiomyocytes were isolated from neonatal rats (NRVMs) as previously described (H. M. Piper et al., Piper H. M. (eds), Cell Culture Techniques in Heart and Vessel Research, Springer Verlag: Berlin, 1990). The isolated myocytes were cultured in Ham's F-10 supplemented with 5%/o fetal bovine serum (FBS) and penicillin/streptomycin (100 U/ml) at 37° C. in a 95% air/5% CO2 humidified atmosphere for four days
Cells were seeded at 4000 cells/well in 100 μL/well in a 96-well plate and incubated for 24 hours. The media was removed and replaced with 200 μL of growth media containing varying concentrations of the complex. After 72 hours of incubation, the media was replaced with MEM containing 1 mg/mL of (4,5-dimethylthiazol-2-yl)-2,5-diepheyltetrazolium bromide (MTT). After four hours incubation, the media was removed and the purple formazan crystals were solubilized using 100 μL of a 8/1 DMSO/glycine buffer (pH 10) mixture. The absorbance at 570 nm was measured using a plate reader.
With the new nitrido-bridged ruthenium compounds C-2 and C-3 prepared, MCU-inhibitory properties of these compounds were evaluated and their activities compared to C-1, the oxo-bridged Ru360 analogue of the conventional art (S. R. Nathan et al., Inorg. Chem. 2017, 56, 3123-3126 and S. R. Nathan et al., J. Vis. Exp. 2017, 56527). The cytotoxicity of the complexes in HEK293 cells was first measured using the colorimetric thiazolyl blue tetrazolium bromide (MTT) assay, as well known in the art. […]

[1] = molecular target: T1, mitochondrial calcium uniporter (MCU) (Homo sapiens, UniProt Q8NE86); experiment: MCU-mediated Ca2+ uptake and ΔΨm in permeabilized HEK293T cells; type: cell-based; design: endogenous in cells; host or cells: HEK293T (digitonin-permeabilized); conditions: for MCU mediated mCa2+ uptake / transient ΔΨm loss (JC-1): 5 μM compound, 20 μM Ca2+ bolus; for MCU mediated mCa2+ uptake: digitonin permeabilized HEK293T cells; for transient ΔΨm loss (JC-1): permeabilized HEK293T cells
T1 sequence (Q8NE86 51-351): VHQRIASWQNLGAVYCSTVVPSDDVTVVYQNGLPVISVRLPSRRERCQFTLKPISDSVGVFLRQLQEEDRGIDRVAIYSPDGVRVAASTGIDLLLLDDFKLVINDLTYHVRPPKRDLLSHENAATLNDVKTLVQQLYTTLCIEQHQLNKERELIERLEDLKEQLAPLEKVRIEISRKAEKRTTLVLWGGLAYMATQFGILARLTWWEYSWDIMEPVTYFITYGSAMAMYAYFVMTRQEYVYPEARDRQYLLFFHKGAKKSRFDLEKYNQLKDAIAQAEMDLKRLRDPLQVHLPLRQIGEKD
T1 sequence (Q9H4I9 48-107 partner limits assumed): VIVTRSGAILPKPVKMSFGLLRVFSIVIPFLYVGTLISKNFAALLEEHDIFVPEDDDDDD
Experimental: An equal number of IHEK293T (6×10^6 cells) were washed in Ca^2+ free PBS, pH 7.4, resuspended and permeabilized with 40 μg/ml digitonin in 1.5 ml of intracellular medium (ICM) composed of 120 mM KCl, 10 mM NaCl, 1 mM K—H2PO4, 20 mM HE PES-Tris, pH 7.2 and 2 μM thapsigargin to block the SERCA pump. All measurements were performed in the presence of 2 mM succinate. The permeabilized cells were loaded with JC-1 (800 nM) and Fura2-FF (0.5 μM), respectively. Fluorescence was monitored in a multi-wavelength excitation dual-wavelength emission fluorimeter. [Ca^2+]out is represented as the excitation ratio (340 nm/380 nm) of Fura2-FF/FA fluorescence and ΔΨm as the ratio of the fluorescence of J-aggregate (570 nm excitation/595 nm emission) and monomer (490 nm excitation/535 nm emission) forms of JC-1. A series of extra-mitochondrial Ca^2+ bolus (20 μM) was added and mitochondrial uncoupler, CCCP (2 jμM), were added at the indicated time points. All of the experiments were performed at 37° C. with constant stirring.
With the new nitrido-bridged ruthenium compounds C-2 and C-3 prepared, MCU-inhibitory properties of these compounds were evaluated and their activities compared to C-1, the oxo-bridged Ru360 analogue of the conventional art (S. R. Nathan et al., Inorg. Chem. 2017, 56, 3123-3126 and S. R. Nathan et al., J. Vis. Exp. 2017, 56527). The cytotoxicity of the complexes in HEK293 cells was first measured using the colorimetric thiazolyl blue tetrazolium bromide (MTT) assay, as well known in the art. […] To measure the effect of these compounds on MCU activity, permeabilized HEK293T cells were treated with commercially available Ru360, C-1, C-2, or C-3 (5 jμM) 200 seconds prior to the delivery of a 20 μM bolus of Ca^2+ in the presence of 2 mM succinate as an energy source and the sarco/endoplasmic reticulum Ca^2+-ATPase (SERCA) pump blocker thapsigargin to prevent ER Ca^2+ uptake (S. Shanmughapriya et al., Sci. Signal. 2015, 8, ra23).
FIGS. 2A-2C are graphs showing changes in mitochondrial membrane potential (ΔΨm, JC-1, top panel) and extramitochondrial Ca^2+([Ca^2+]out) clearance (Fura-2 FF, bottom panel) in digitonin permeabilized HEK293T cells in response to 20 μM of Ca^2+ after treatment with 5 μM of C-1 (FIG. 2A), C-2 (FIG. 2B), and C-3 (FIG. 2C). The transient drop in ΔΨm in control cells upon Ca^2+ addition indicates accumulation of Ca^2+ in the mitochondrial matrix. FIG. 2D is a graph quantifying the rate of [Ca^2+] uptake as a function of decrease in [Ca^2+]out after a […] Ca^2+ pulse. […] Additionally, ΔΨm was monitored using 5,5′,6,6′-tetrachloro-1,1′,3,3′-tetraethylbenzimidazolylcarbocyanine iodide (JC-1) dye (M. Reen et al., Biochemistry 1991, 30, 4480-4486).
Having identified (C-2 as a cell-permeable MCU inhibitor, a dose-response analysis was performed to determine the potency of C-2 towards mCa^2+ uptake inhibition of C-2 in a permeabilized cell system. Permeabilized IHEK293T cells were treated with C-2 (1 nM to 1 μM). A 20 μM Ca^2+ bolus was added after baseline recording, and the extra-mitochondrial calcium cleared was used as an indicator for MCU-mediated mCa^2+ uptake using Fura-2FF. The results are shown in FIGS. 4A-4C. FIG. 4A includes representative traces of [Ca^2+]out clearance in permeabilized HEK293T cells challenged with a range of C-2 concentrations (1, 2, 3, 5, and 10 nM). FIG. 4B is a graph comparing MCU-inhibitory effect by Ru360 (30 nM) and C-2 (2 and 10 nM) at lower concentrations. FIG. 4C is a graph showing calculation of dose-dependent IC50 inhibition by C-2 and Ru360. Data represent mean±SEM (n=3-6), n.s.=not significant. […] Furthermore, complete inhibition of mCa^2+ uptake was observed when cells were dosed with 10 nM C-2 while 500 nM of Ru360 was required for the same response (FIGS. 4A and 4B).

Compound | toxicity to human cells (HEK293 cells) | IC50 [1] [nM] | MCU mediated mCa2+ uptake [1] | transient ΔΨm loss (JC-1) [1] | IC50 (HEK293 cells) [nM]
N.N.N.N.N.N.N.N.[Cl-].[Cl-].[N-3].[Ru+4].[Ru+4] [C-2, [Ru2(μ-N)(NH3)8Cl2]Cl3] | low toxicity to human cells | 2.6 | significant reduction in MCU mediated mCa^2+ uptake | no transient A m loss | 
N.N.N.N.N.N.N.N.O=C[O-].O=C[O-].[O-2].[Ru+3].[Ru+4] [Ru360, reference compound] |  | 30 | significant reduction in MCU mediated mCa^2+ uptake | no transient A m loss | 
[Ru2(μ-N)(en)4Cl2]Cl3 [C-3] |  |  | significant reduction in MCU mediated mCa^2+ uptake | no transient A m loss | 226000 ± 19000
